According to article PMC5786306, “An AKAP-Lbc-RhoA interaction inhibitor promotes the translocation of aquaporin-2 to the plasma membrane of renal collecting duct principal cells” (PLoS ONE, 2018):
Entries after “also recorded” stand apart in the source; their conditions may differ. Like-named read-outs stand apart in the source and are kept apart here. Blank lines part the entries; values can stand above or below the molecule they belong to.

Columns and labels:
[1] = target: T1, interaction of AKAP-Lbc/DHPH and RhoA (Homo sapiens, UniProt P61586); test: Homogeneous time-resolved fluorescence (HTRF) assay; type: binding; conditions: HTRF; for IC50: Table 1, '-' = no IC50, inactive (n.d. is used separately in S3 Table); for inhibitory effect on the AKAP-Lbc/DHPH-RhoA interaction: result in words
T1 construct: His6-AKAP-Lbc/DHPH (aa 1972–2342 of human AKAP-Lbc; NP_006729.4); made in house
T1 sequence (P61586 whole entry, the tested form may be a part): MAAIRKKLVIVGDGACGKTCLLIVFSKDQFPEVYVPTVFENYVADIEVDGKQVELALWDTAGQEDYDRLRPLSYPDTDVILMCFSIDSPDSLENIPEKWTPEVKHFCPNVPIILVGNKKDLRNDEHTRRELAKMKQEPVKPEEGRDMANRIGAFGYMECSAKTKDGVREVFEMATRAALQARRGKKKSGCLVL
Source text: Fig 2 The small molecule Scaff10-8 inhibits the interaction of the DH domain of AKAP-Lbc and RhoA. (A). Principle of homogenous time-resolved fluorescence (HTRF) assay. Recombinant His-AKAP-Lbc/DHPH and GST-RhoA were generated. The tags are recognized by specific antibodies coupled to fluorescent dyes. When the two proteins interact, donor and acceptor dyes of the antibodies are in close proximity, energy transfer occurs upon excitation at 320 nm and a FRET signal is detected (665 nm). If a compound disrupts the interaction of the DHPH domain and RhoA, the proximity of the fluorescent moieties remains insufficient for a FRET signal to occur. […] As expected, excess untagged Rho decreases the binding between GST-RhoA and His-AKAP-Lbc/DHPH in a dose-dependent manner (lower left panel). […] (C) The influence of Scaff10-8 on the interaction of RhoA with the recombinant DH domain of AKAP-Lbc in the absence of the PH domain was determined by Alpha screen. […] The IC50 value is indicated.
The assay was essentially carried out as described. Scaff10 derivatives were added to His6-AKAP-Lbc/DHPH protein (250 nM final concentration) in HTRF buffer (PBS; 4 mM MgCl2; 0.05% Tween 20) in 384 well plates (Proxiplate-384 Plus, white, #6008289; Perkin Elmer LAS, Rodgau, Germany). Concentrations of Scaff10 derivatives ranged between 1.56–200 μM (2% DMSO final concentration); HTRF buffer with 2% DMSO served as a control. GST-RhoA (30 nM final concentration) in HTRF buffer and anti-GST antibody coupled to terbium (donor) and anti-His6-tag antibody coupled to XL665 (acceptor) were added to all wells (final antibody concentration: 2 μg/ml). After 1 h incubation at room temperature in the dark, FRET signals were recorded at 620 and 665 nm using a Genios Pro plate reader (Tecan Austria GmbH, Grödig, AT) and the ratios of […] to 620 nm were calculated. Wells containing no compound were set to 100% interaction of AKAP-Lbc/DHPH with RhoA, wells containing GST-RhoA only (without His6-AKAP-Lbc/DHPH) were set to 0% interaction. To exclude any interference of the tags and/or antibodies with Scaff10 derivatives, a His6-GST fusion protein replaced the two tagged proteins in a control assay. Wells containing His6-GST fusion protein were set to 100% interaction of His6-GST, wells containing no fusion protein were set to 0% interaction.

647-RhoA = target: T2, 647-RhoA (Homo sapiens, UniProt P61586); test: Microscale thermophoresis (MST) with 647-RhoA; type: binding; conditions: for Kd: mean ± SEM
T2 construct: made in house
T2 sequence (P61586 whole entry): as the sequence (P61586 whole entry, the tested form may be a part) above
Method: (§1) The final concentration of GFP-AKAP-Lbc/DHPH was set to 150 nM, 95% LED and 80% MST laser power. […] The samples were incubated in the dark for 1 h incubation at room temperature, and measured with 30 sec laser-on and 5 sec laser-off time at a Monolith NT.115 device (NanoTemper). Measured fluorescence (F) was normalised (Fhot/Fcold = Fsteady state/Finitial state, Fig 3). Values of thermophoresis + T-jump were related to average of each measurement row (16 capillaries). Final values are given as ‰.
(§2) Fig 4 The Scaff10 derivative Scaff10-8 binds to RhoA but not to the DHPH domain of AKAP-Lbc. (A-D) Microscale thermophoresis (MST) takes advantage of the phenomenon of directed movement of particles in a temperature gradient. Binding events lead to changes in the hydration shell of biomolecules and a relative change of movement of the molecular complex along a temperature gradient. Using such changes, binding affinities can be determined. MST assays were carried out with (A) the recombinant DHPH domain of AKAP-Lbc fused with GFP and RhoA as a ligand and (B) fluorescent 647-RhoA and the His-tagged AKAP-Lbc/DHPH domain as a ligand. (C) MST assays for the analysis of the binding of Scaff10-8 to 647-RhoA. Upper panels: The concentration of fluorescent 647-RhoA remained constant and Scaff10-8 (left) and Scaff10-7 as a negative control (right) were titrated in increasing concentrations. Lower panels: Values of fluorescence corresponding to upper panels. (D) MST assay showing no binding of Scaff10-8 or Scaff10-7 to GFP-DHPH. Upper panels: The concentration of fluorescent GFP-AKAP-Lbc/DHPH remained constant and Scaff10-8 (left) and Scaff10-7 (right) were titrated in increasing concentrations. Lower panels: Values of fluorescence corresponding to upper panels. […] F norm = normalized fluorescence (fluorescence steady state/fluorescence initial state) indicated in ‰. n = 3–5. Mean ± SEM. […] The ligand protein named in each panel heading is used as the substance label, and it is uncertain whether these count as substances.

Nephelometric solubility = type: physicochemical; conditions: maximal solubility in DMEM + 10 % FCS
Method: Solubility of Scaff10 derivatives was assessed nephelometrically. Scaff10 derivatives are moderately to poorly soluble in aqueous solutions due to their large number of aromatic rings having lipophilic character. Details about NMR, LC/MS and HPLC characterization steps are given in the Supplemental Information.
Suppl. Tab. 3: Overview of all 55 Scaff10 derivatives.Structures labeld with 1 were commercially obtained. MW = molecular weight. logP = calculated partition coefficient (using […]
Solubility was assessed nephelometrically in DMEM + 10 % FCS + Scaff10 derivative with either 0.3 or 2 % DMSO
final concentration; values in µM indicate maximal solubility of the compound under the respective condition. Yield in % indicates total yield of the last step of chemical synthesis
for each of Scaff10 derivatives. n.d. = not determined. n.i. = not indicated.
Scaff10 MW Number of exp. 2 % DMSO 0.3 % DMSO Scaff10 Yield
Structure log P Disruption of the PPI IC50 [µM]
derivative [g/mol] in dupl. [µM] [µM] class [%]

[2] = target: T3, interaction of the DH domain of AKAP-Lbc and RhoA (Homo sapiens, UniProt P61586); test: Alpha screen assay; type: binding; conditions: result in words
T3 construct: The proteins used were N-terminally His6-tagged AKAP-Lbc-DH domain
T3 sequence (P61586 whole entry, the tested form may be a part): as above
Method: Assays were performed according to the manufacturer’s protocol (PerkinElmer) with minor modifications. All reagents were diluted in buffer containing 25 mM Hepes, pH 7.4, 100 mM NaCl, 0.1% bovine serum albumin, 0.05% CHAPS and 50 μM GDP and allowed to equilibrate to room temperature before addition to plates. […] The proteins used were N-terminally His6-tagged AKAP-Lbc-DH domain and C-terminally biotinylated RhoA. […] 8 μL of assay buffer containing donor and acceptor beads at 1:400 dilution was then added, the plate was incubated in the dark for 60 min and then read on a PheraStar FS plate reader (BMG Labtech, Germany) using an AlphaScreen^TM 680 excitation/570 emission filter set.
11.6 μL of a solution containing 100 nM RhoA and 200 nM AKAP13 in assay buffer was added and incubated with the compounds for 30 min at RT in foil-sealed plates. 8 μL of assay buffer containing donor and acceptor beads at 1:400 dilution was added. The plate was incubated in the dark for 60 min and then read on a PheraStar FS plate reader.

[3] = system: AQP2 localization in MCD4 cells; test: Immunofluorescence microscopy of AQP2 in MCD4 cells; type: cell-based, mouse; conditions: 30 μM
[4] = comparison value, no reference given; cited from earlier work
GFP-AKAP-Lbc/DHPH = target: T4, GFP-AKAP-Lbc/DHPH (Homo sapiens, UniProt Q12802); test: Microscale thermophoresis (MST) with GFP-AKAP-Lbc/DHPH; type: binding; conditions: read-out: KD for binding to GFP-AKAP-Lbc/DHPH
T4 construct: His6-AKAP-Lbc/DHPH (aa 1972–2342 of human AKAP-Lbc; NP_006729.4); made in house; host or cells: HEK293-EBNA cells (transient transfection, pTT5)
T4 sequence (Q12802 1972-2342 isoform Q12802-2): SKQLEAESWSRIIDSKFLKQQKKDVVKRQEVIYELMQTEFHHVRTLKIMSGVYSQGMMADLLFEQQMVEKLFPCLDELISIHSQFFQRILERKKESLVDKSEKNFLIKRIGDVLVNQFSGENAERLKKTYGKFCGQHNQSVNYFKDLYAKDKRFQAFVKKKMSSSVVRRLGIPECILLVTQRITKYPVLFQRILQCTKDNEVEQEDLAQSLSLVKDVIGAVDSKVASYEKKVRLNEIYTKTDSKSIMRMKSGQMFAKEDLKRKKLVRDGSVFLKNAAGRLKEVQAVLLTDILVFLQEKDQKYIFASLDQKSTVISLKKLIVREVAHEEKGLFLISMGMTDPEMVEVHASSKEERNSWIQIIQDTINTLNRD
Method: as §1, §2

[5] = DMEM + 10 % FCS, plasma or biological fluid, kinetic from dmso stock, 0.3 % DMSO final, read-out: Solubility 0.3 % DMSO
[6] = DMEM + 10 % FCS, plasma or biological fluid, kinetic from dmso stock, 2 % DMSO final, read-out: Solubility 2 % DMSO

- IC50 ([1]; IC50 ± SEM): 36.7 ± 3.3 µM
- Kd (647-RhoA; KD for binding to 647-RhoA, n = 3–5): 19.5 ± 4.1 µM
- solubility (Nephelometric solubility; [5]): > 150 µM
- solubility (Nephelometric solubility; [6]): 100 µM
Molecule: Cc1c(CCC(=O)O)c(=O)oc2cc3occ(-c4ccc(Oc5ccccc5)cc4)c3cc12 [Scaff10-38]

- inhibitory effect on the AKAP-Lbc/DHPH-RhoA interaction [1]: complete loss of the inhibitory effect
- IC50 ([1]; read-out: IC50 ± SEM): > 200 µM
- binding to 647-RhoA (647-RhoA; result in words): did not bind
- solubility (Nephelometric solubility; 0.3 % DMSO final, read-out: Solubility 0.3 % DMSO): 75 µM
- solubility (Nephelometric solubility; 2 % DMSO final, read-out: Solubility 2 % DMSO): 30 µM
Molecule: COC(=O)CCc1c(C)c2cc3c(-c4ccc(OC)cc4)coc3cc2oc1=O [Scaff10-48]

- IC50 ([1]; read-out: IC50 ± SEM): > 200 µM
- inhibitory effect in Alpha screen [2]: without inhibitory effects
- solubility (Nephelometric solubility; [5]): 40 µM
- solubility (Nephelometric solubility; [6]): 30 µM
Molecule: CCOC(=O)CCc1c(C)c2ccc(OCc3ccc(OC)cc3)cc2oc1=O [Scaff10-59]
- inhibitory effect on the AKAP-Lbc/DHPH-RhoA interaction [1]: did not; also recorded: without inhibitory effects
- localization of AQP2 in MCD4 cells [3]: did not affect the location of AQP2

- Kd (GFP-AKAP-Lbc/DHPH): 42 ± 5 µM
Molecule: untagged RhoA: recombinant untagged RhoA protein used as competitor or ligand

Further lines, the molecule ahead of its results:

Molecule: CC(=O)NO [acetohydroxamic acid]
- pKa [4]: 8.7

Molecule: O=C(O)/C=C/c1ccccc1 [cinnamic acid]
- pKa [4]: 4.44

B1: His-AKAP-Lbc/DHPH: recombinant His-tagged DHPH domain of AKAP-Lbc (protein)
chain: T4 sequence (Q12802 1972-2342 isoform Q12802-2)
modifications: left off: His6, end not stated, kept
- Kd (647-RhoA; n = 3–5, read-out: KD for binding to 647-RhoA): 14 ± 4 µM
